{"source": "ChEMBL document CHEMBL3046781", "about": "“Resistance of Helicoverpa assulta (Guenée) (Lepidoptera: Noctuidae) to fenvalerate, phoxim and methomyl in China” (2009)", "assay_type_in_all_cases": "functional", "key": {"Helicoverpa assulta [1]": {"tested_on": "Helicoverpa assulta", "assay": "Insecticidal activity against sixth-instar larvae of Helicoverpa assulta SD1 at 39 to 12630 mg/l after 48 hr by chi-squared analysis"}, "Helicoverpa assulta [2]": {"tested_on": "Helicoverpa assulta", "assay": "Insecticidal activity against sixth-instar larvae of Helicoverpa assulta at 39 to 12630 mg/l after 48 hr by chi-squared analysis"}, "Helicoverpa assulta [3]": {"tested_on": "Helicoverpa assulta", "assay": "Insecticidal activity against sixth-instar larvae of Helicoverpa assulta GZ1 at 39 to 12630 mg/l after 48 hr by chi-squared analysis"}, "Helicoverpa assulta [4]": {"tested_on": "Helicoverpa assulta", "assay": "Resistance factor, ratio of LD50 for sixth-instar larvae of Helicoverpa assulta FJ2 to LD50 for sixth-instar larvae of Helicoverpa assulta at 39 to 12630 mg/l"}, "Helicoverpa assulta [5]": {"tested_on": "Helicoverpa assulta", "assay": "Resistance factor, ratio of LD50 for sixth-instar larvae of Helicoverpa assulta FJ1 to LD50 for sixth-instar larvae of Helicoverpa assulta at 39 to 12630 mg/l"}, "Helicoverpa assulta [6]": {"tested_on": "Helicoverpa assulta", "assay": "Resistance factor, ratio of LD50 for sixth-instar larvae of Helicoverpa assulta AH3 to LD50 for sixth-instar larvae of Helicoverpa assulta at 39 to 12630 mg/l"}, "Helicoverpa assulta [7]": {"tested_on": "Helicoverpa assulta", "assay": "Resistance factor, ratio of LD50 for sixth-instar larvae of Helicoverpa assulta AH2 to LD50 for sixth-instar larvae of Helicoverpa assulta at 39 to 12630 mg/l"}, "Helicoverpa assulta [8]": {"tested_on": "Helicoverpa assulta", "assay": "Insecticidal activity against sixth-instar larvae of Helicoverpa assulta YN4 at 39 to 12630 mg/l after 48 hr by chi-squared analysis"}, "Helicoverpa assulta [9]": {"tested_on": "Helicoverpa assulta", "assay": "Resistance factor, ratio of LD50 for sixth-instar larvae of Helicoverpa assulta YN5 to LD50 for sixth-instar larvae of Helicoverpa assulta at 39 to 12630 mg/l"}, "Helicoverpa assulta [10]": {"tested_on": "Helicoverpa assulta", "assay": "Insecticidal activity against sixth-instar larvae of Helicoverpa assulta AH3 at 39 to 12630 mg/l after 48 hr by chi-squared analysis"}, "Helicoverpa assulta [11]": {"tested_on": "Helicoverpa assulta", "assay": "Resistance factor, ratio of LD50 for sixth-instar larvae of Helicoverpa assulta SD2 to LD50 for sixth-instar larvae of Helicoverpa assulta at 1.8 to 183360 mg/l"}, "Helicoverpa assulta [12]": {"tested_on": "Helicoverpa assulta", "assay": "Resistance factor, ratio of LD50 for sixth-instar larvae of Helicoverpa assulta YN1 to LD50 for sixth-instar larvae of Helicoverpa assulta at 1.8 to 183360 mg/l"}, "Helicoverpa assulta [13]": {"tested_on": "Helicoverpa assulta", "assay": "Resistance factor, ratio of LD50 for sixth-instar larvae of Helicoverpa assulta GZ2 to LD50 for sixth-instar larvae of Helicoverpa assulta at 1.8 to 183360 mg/l"}, "Helicoverpa assulta [14]": {"tested_on": "Helicoverpa assulta", "assay": "Insecticidal activity against sixth-instar larvae of Helicoverpa assulta GZ4 at 1.8 to 183360 mg/l after 48 hr by chi-squared analysis"}, "Helicoverpa assulta [15]": {"tested_on": "Helicoverpa assulta", "assay": "Resistance factor, ratio of LD50 for sixth-instar larvae of Helicoverpa assulta HN2 to LD50 for sixth-instar larvae of Helicoverpa assulta at 1.8 to 183360 mg/l"}, "Helicoverpa assulta [16]": {"tested_on": "Helicoverpa assulta", "assay": "Resistance factor, ratio of LD50 for sixth-instar larvae of Helicoverpa assulta YN4 to LD50 for sixth-instar larvae of Helicoverpa assulta at 1.8 to 183360 mg/l"}, "Helicoverpa assulta [17]": {"tested_on": "Helicoverpa assulta", "assay": "Insecticidal activity against sixth-instar larvae of Helicoverpa assulta FJ2 at 1.8 to 183360 mg/l after 48 hr by chi-squared analysis"}, "Helicoverpa assulta [18]": {"tested_on": "Helicoverpa assulta", "assay": "Resistance factor, ratio of LD50 for sixth-instar larvae of Helicoverpa assulta AH3 to LD50 for sixth-instar larvae of Helicoverpa assulta at 1.8 to 183360 mg/l"}, "Helicoverpa assulta [19]": {"tested_on": "Helicoverpa assulta", "assay": "Insecticidal activity against sixth-instar larvae of Helicoverpa assulta GZ2 at 1.8 to 183360 mg/l after 48 hr by chi-squared analysis"}, "Helicoverpa assulta [20]": {"tested_on": "Helicoverpa assulta", "assay": "Resistance factor, ratio of LD50 for sixth-instar larvae of Helicoverpa assulta HN1 to LD50 for sixth-instar larvae of Helicoverpa assulta at 1.8 to 183360 mg/l"}, "Helicoverpa assulta [21]": {"tested_on": "Helicoverpa assulta", "assay": "Insecticidal activity against sixth-instar larvae of Helicoverpa assulta HN2 at 1.8 to 183360 mg/l after 48 hr by chi-squared analysis"}, "Helicoverpa assulta [22]": {"tested_on": "Helicoverpa assulta", "assay": "Resistance factor, ratio of LD50 for sixth-instar larvae of Helicoverpa assulta GZ3 to LD50 for sixth-instar larvae of Helicoverpa assulta at 1.8 to 183360 mg/l"}, "Helicoverpa assulta [23]": {"tested_on": "Helicoverpa assulta", "assay": "Insecticidal activity against sixth-instar larvae of Helicoverpa assulta at 1.8 to 183360 mg/l after 48 hr by chi-squared analysis"}, "Helicoverpa assulta [24]": {"tested_on": "Helicoverpa assulta", "assay": "Resistance factor, ratio of LD50 for sixth-instar larvae of Helicoverpa assulta GZ4 to LD50 for sixth-instar larvae of Helicoverpa assulta at 1.8 to 183360 mg/l"}, "Helicoverpa assulta [25]": {"tested_on": "Helicoverpa assulta", "assay": "Insecticidal activity against sixth-instar larvae of Helicoverpa assulta AH2 at 1.8 to 183360 mg/l after 48 hr by chi-squared analysis"}, "Helicoverpa assulta [26]": {"tested_on": "Helicoverpa assulta", "assay": "Insecticidal activity against sixth-instar larvae of Helicoverpa assulta YN5 at 1.8 to 183360 mg/l after 48 hr by chi-squared analysis"}, "Helicoverpa assulta [27]": {"tested_on": "Helicoverpa assulta", "assay": "Insecticidal activity against sixth-instar larvae of Helicoverpa assulta YN4 at 21 to 3390 mg/l after 48 hr by chi-squared analysis"}, "Helicoverpa assulta [28]": {"tested_on": "Helicoverpa assulta", "assay": "Insecticidal activity against sixth-instar larvae of Helicoverpa assulta GZ5 at 21 to 3390 mg/l after 48 hr by chi-squared analysis"}, "Helicoverpa assulta [29]": {"tested_on": "Helicoverpa assulta", "assay": "Insecticidal activity against sixth-instar larvae of Helicoverpa assulta AH1 at 21 to 3390 mg/l after 48 hr by chi-squared analysis"}, "Helicoverpa assulta [30]": {"tested_on": "Helicoverpa assulta", "assay": "Insecticidal activity against sixth-instar larvae of Helicoverpa assulta YN6 at 21 to 3390 mg/l after 48 hr by chi-squared analysis"}, "Helicoverpa assulta [31]": {"tested_on": "Helicoverpa assulta", "assay": "Resistance factor, ratio of LD50 for sixth-instar larvae of Helicoverpa assulta HB2 to LD50 for sixth-instar larvae of Helicoverpa assulta at 21 to 3390 mg/l"}, "Helicoverpa assulta [32]": {"tested_on": "Helicoverpa assulta", "assay": "Resistance factor, ratio of LD50 for sixth-instar larvae of Helicoverpa assulta YN4 to LD50 for sixth-instar larvae of Helicoverpa assulta at 21 to 3390 mg/l"}, "Helicoverpa assulta [33]": {"tested_on": "Helicoverpa assulta", "assay": "Resistance factor, ratio of LD50 for sixth-instar larvae of Helicoverpa assulta YN7 to LD50 for sixth-instar larvae of Helicoverpa assulta at 21 to 3390 mg/l"}, "Helicoverpa assulta [34]": {"tested_on": "Helicoverpa assulta", "assay": "Insecticidal activity against sixth-instar larvae of Helicoverpa assulta FJ2 at 21 to 3390 mg/l after 48 hr by chi-squared analysis"}, "Helicoverpa assulta [35]": {"tested_on": "Helicoverpa assulta", "assay": "Resistance factor, ratio of LD50 for sixth-instar larvae of Helicoverpa assulta HN2 to LD50 for sixth-instar larvae of Helicoverpa assulta at 21 to 3390 mg/l"}}}
{"smiles": "CCOP(=S)(OCC)O/N=C(\\C#N)c1ccccc1", "note": "[PHOXIM]", "values": [{"measurement": "LD90", "setting": "Helicoverpa assulta [1]", "value": 26.5, "unit": "µg/g"}, {"measurement": "LD50", "setting": "Helicoverpa assulta [1]; Helicoverpa assulta, SD1, 48 h", "value": 11.9, "unit": "mg/kg"}, {"measurement": "LD90", "setting": "Helicoverpa assulta [2]", "value": 5.54, "unit": "µg/g"}, {"measurement": "LD50", "setting": "Helicoverpa assulta [2]; Helicoverpa assulta, 48 h", "value": 2.34, "unit": "mg/kg"}, {"measurement": "LD90", "setting": "Helicoverpa assulta [3]", "value": 124, "unit": "µg/g"}, {"measurement": "LD50", "setting": "Helicoverpa assulta [3]; Helicoverpa assulta, GZ1, 48 h", "value": 33.3, "unit": "mg/kg"}, {"measurement": "Ratio", "setting": "Helicoverpa assulta [4]", "value": 9.41}, {"measurement": "Ratio", "setting": "Helicoverpa assulta [5]", "value": 7.13}, {"measurement": "Ratio", "setting": "Helicoverpa assulta [6]", "value": 14.3}, {"measurement": "Ratio", "setting": "Helicoverpa assulta [7]", "value": 7.13}, {"measurement": "LD90", "setting": "Helicoverpa assulta [8]", "value": 94, "unit": "µg/g"}, {"measurement": "LD50", "setting": "Helicoverpa assulta [8]; Helicoverpa assulta, YN4, 48 h", "value": 39.6, "unit": "mg/kg"}, {"measurement": "Ratio", "setting": "Helicoverpa assulta [9]", "value": 11}, {"measurement": "LD90", "setting": "Helicoverpa assulta [10]", "value": 181, "unit": "µg/g"}, {"measurement": "LD50", "setting": "Helicoverpa assulta [10]; Helicoverpa assulta, AH3, 48 h", "value": 33.3, "unit": "mg/kg"}]}
{"smiles": "CC(C)C(C(=O)OC(C#N)c1cccc(Oc2ccccc2)c1)c1ccc(Cl)cc1", "note": "(configuration not stated) [FENVALERATE]", "values": [{"measurement": "Ratio", "setting": "Helicoverpa assulta [11]", "value": 12}, {"measurement": "Ratio", "setting": "Helicoverpa assulta [12]", "value": 8412}, {"measurement": "Ratio", "setting": "Helicoverpa assulta [13]", "value": 1042}, {"measurement": "LD90", "setting": "Helicoverpa assulta [14]", "value": 133, "unit": "µg/g"}, {"measurement": "LD50", "setting": "Helicoverpa assulta [14]; Helicoverpa assulta, GZ4, 48 h", "value": 56.2, "unit": "mg/kg"}, {"measurement": "Ratio", "setting": "Helicoverpa assulta [15]", "value": 7.23}, {"measurement": "Ratio", "setting": "Helicoverpa assulta [16]", "value": 9231}, {"measurement": "LD90", "setting": "Helicoverpa assulta [17]", "value": 4.91, "unit": "µg/g"}, {"measurement": "LD50", "setting": "Helicoverpa assulta [17]; Helicoverpa assulta, FJ2, 48 h", "value": 2.08, "unit": "mg/kg"}, {"measurement": "Ratio", "setting": "Helicoverpa assulta [18]", "value": 1546}, {"measurement": "LD90", "setting": "Helicoverpa assulta [19]", "value": 558, "unit": "µg/g"}, {"measurement": "LD50", "setting": "Helicoverpa assulta [19]; Helicoverpa assulta, GZ2, 48 h", "value": 169, "unit": "mg/kg"}, {"measurement": "Ratio", "setting": "Helicoverpa assulta [20]", "value": 64.9}, {"measurement": "LD90", "setting": "Helicoverpa assulta [21]", "value": 7.63, "unit": "µg/g"}, {"measurement": "LD50", "setting": "Helicoverpa assulta [21]; Helicoverpa assulta, HN2, 48 h", "value": 1.17, "unit": "mg/kg"}, {"measurement": "Ratio", "setting": "Helicoverpa assulta [22]", "value": 824}, {"measurement": "LD90", "setting": "Helicoverpa assulta [23]", "value": 0.723, "unit": "µg/g"}, {"measurement": "LD50", "setting": "Helicoverpa assulta [23]; Helicoverpa assulta, 48 h", "value": 0.162, "unit": "mg/kg"}, {"measurement": "Ratio", "setting": "Helicoverpa assulta [24]", "value": 347}, {"measurement": "LD90", "setting": "Helicoverpa assulta [25]", "value": 259, "unit": "µg/g"}, {"measurement": "LD50", "setting": "Helicoverpa assulta [25]; Helicoverpa assulta, AH2, 48 h", "value": 67.3, "unit": "mg/kg"}, {"measurement": "LD90", "setting": "Helicoverpa assulta [26]", "value": 4567, "unit": "µg/g"}, {"measurement": "LD50", "setting": "Helicoverpa assulta [26]; Helicoverpa assulta, YN5, 48 h", "value": 1430, "unit": "mg/kg"}]}
{"smiles": "CNC(=O)ON=C(C)SC", "note": "[METHOMYL]", "values": [{"measurement": "LD90", "setting": "Helicoverpa assulta [27]", "value": 62.2, "unit": "µg/g"}, {"measurement": "LD50", "setting": "Helicoverpa assulta [27]; Helicoverpa assulta, YN4, 48 h", "value": 16.7, "unit": "mg/kg"}, {"measurement": "LD90", "setting": "Helicoverpa assulta [28]", "value": 64.6, "unit": "µg/g"}, {"measurement": "LD50", "setting": "Helicoverpa assulta [28]; Helicoverpa assulta, GZ5, 48 h", "value": 21, "unit": "mg/kg"}, {"measurement": "LD90", "setting": "Helicoverpa assulta [29]", "value": 168, "unit": "µg/g"}, {"measurement": "LD50", "setting": "Helicoverpa assulta [29]; Helicoverpa assulta, AH1, 48 h", "value": 53.6, "unit": "mg/kg"}, {"measurement": "LD90", "setting": "Helicoverpa assulta [30]", "value": 66.2, "unit": "µg/g"}, {"measurement": "LD50", "setting": "Helicoverpa assulta [30]; Helicoverpa assulta, YN6, 48 h", "value": 19.7, "unit": "mg/kg"}, {"measurement": "Ratio", "setting": "Helicoverpa assulta [31]", "value": 10.9}, {"measurement": "Ratio", "setting": "Helicoverpa assulta [32]", "value": 11.5}, {"measurement": "Ratio", "setting": "Helicoverpa assulta [33]", "value": 27}, {"measurement": "LD90", "setting": "Helicoverpa assulta [34]", "value": 108, "unit": "µg/g"}, {"measurement": "LD50", "setting": "Helicoverpa assulta [34]; Helicoverpa assulta, FJ2, 48 h", "value": 28.7, "unit": "mg/kg"}, {"measurement": "Ratio", "setting": "Helicoverpa assulta [35]", "value": 2.93}]}
